From US20040204342A1, “Orthodontic remedies containing” (CHUGAI SEIYAKU KABUSHIKI KAISHA, priority 1996, published 2004)

Experiments:
Format in all cases: in vivo, rat
male Wister rats [1] = test: Experimental tooth movement by closed coil spring (mesial shift of M1), systemic continuous infusion or intermittent injection; conditions: for mesial shift of M1 compared with control group: day 3
Excerpt: (§1) There are two methods for experimental tooth movement, i.e., one wherein an elastic band (made of rubber) is inserted between teeth and another one wherein a closed coil spring for orthodontics is used. The closed coil spring employed herein is Sentalloy closed coil spring 509-21 (made of Ni—Ti, manufactured by Tomy International K.K.) which can give an almost constant traction force of about 30 g within a spring-elongation range of 2 to 3 mm. […] When the initial elongation of the spring is regulated within the above-mentioned range, therefore, a constant force can be applied regardless of orthodontic tooth movement. When a rubber substance is inserted between molars, an extremely large force is applied immediately after the insertion but scarcely any force is applied after the target tooth is shifted by 0.5 mm. Accordingly, either the method with the insertion of an elastic (rubber) band or another one with the use of a closed coil spring may be used in experimental tooth movement within a short period of time. When a tooth is to be shifted over a long time, however, it is appropriate to use the latter method wherein the first molar is mesially shifted by elongating a closed coil spring. The method with the insertion of an elastic (rubber) band was employed in Example 1, while another method with the use of a closed coil spring was employed in Example 2.
(§2) It has been already clarified that the continuous administration of PTH and the intermittent administration thereof differ from each other in their effect on bones. Thus, attempts were made to examine how PTH administered by either method would affect the experimental tooth movement. Use was made of 12 male Wister rats weighing 350 to 400 g. In the continuous PTH-administration group, an osmotic pump (2ML2, manufactured by Alzet, Palo Alto, Calif., USA) was subcutaneously implanted into the dorsal part of each rat followed by the continuous infusion of hPTH (1-34) (manufactured by Peptide Institute Inc., Mino) in a dose of 0.4 μg/100 g body weight/day or 4 μg/100 g body weight/day. As the control groups, use was made of 2 groups including (1) one to which the vehicle was continuously infused, and (2) an intermittent administration group to which 4 μg/100 g body weight/day of PTH was subcutaneously injected into the dorsal part once a day. From the next day of the initiation of the PTH-administration, an ultra-elastic closed coil spring (509-21, manufactured by Tomy International, K.K., Tokyo) was put between the upper incisive tooth and the right first molar M1 followed by the mesial traction of M1 for 12 days (FIG. 6-A, B). After the initiation of the shifting, the precise impression of the upper jaw was taken every 3 days by using a silicone impression material (Exafine, manufactured by GC, Tokyo) and the distance between the first molar and the second molar (M2) was measured on ultra-hard gypsum models (FIG. 6-C). After the completion of shifting over 12 days, arterial blood was collected from the abdominal aorta and various serum parameters were measured. After sacrificing each rat, the upper jaw and the right thickening bone were taken out. The upper jaw was decalcificated and then cut into a paraffin section of 8 μm in thickness involving, in the direction of the major axis, the buccal mesial root and the buccal distal root followed by HE-staining and histological observation. The bone mineral content and bone mineral density of the isolated the femur were measured by dual-x-ray absorptometry (DCS-600, manufactured by Aloka, Tokyo, Japan).

male Wister rats [2] = test: Experimental tooth movement by closed coil spring (mesial shift of M1), local administration of sustained release dosage form; conditions: 1 μg/400 g locally injected every 2 days (sustained release), FIG. 15
Excerpt: as §1, with “2. […]” for “2.”

male Wister rats [3] = test: Histological findings of periodontium and alveolar bone in closed coil spring tooth movement; conditions: continuous systemic infusion group
Excerpt: as §2, with “The upper jaw was decalcificated and then cut into a paraffin section of 8 μm in thickness involving, in the direction of the major axis, the buccal mesial root and the buccal distal root followed by HE-staining and histological observation.” left out, “Japan). […]” for “Japan).”

male Wister rats [4] = test: Experimental tooth movement by elastic band inserted between M1 and M2 (teeth separation), continuous PTH infusion
Excerpt: as §1
(§3) 18 rats were divided into 4 groups including a control group having 6 animals and 3 PTH-infusion groups each having 4 animals. PTH was dissolved in a citric acid-buffered saline containing 0.05% of Tween 80 and introduced into osmotic pumps. Then these pumps were implanted in the subcutus posterior region of the neck of the rats under ether anetheia. PTH was continuously infused into the rats in doses of 1, 3 and 10 μg/100 g body weight/day and the rats were fed with a standard pelletized feed (manufactured by Oriental Yeast Co., Ltd.). To the rats of the control group, vehicles were exclusively administered. 48 hours after implanting, a piece of an elastic band (0.8 mm in thickness) was inserted between the right upper first molar and second molar (between M1 and M2) of each rat under ether anetheia in accordance with the method of Wong-Rothblatt (1954) as shown in FIG. 1(A). On day 3 of the teeth separation, the rat was sacrificed by ether-inhalation. After cutting out the upper jaw, the distance between the adjacent faces of M1 and M2 was measured with the combined use of contact gauges (manufactured by Sun Dental, Osaka) of 50, 100 and 150 μm in thickness (FIGS. 1(B) and (C)). In the case of the control group, a contact gauge of 50 μm could be inserted between M1 and M2. Thus, the interdental distance was calculated by subtracting 50 μm from the measured distance of each animal. […] The upper jaw was fixed in 4% paraformaldehyde, decalcificated in 4% formic acid and then implanted in paraffin. […] Histological examinations were all performed in the pressured side of the M1 interradicular septa and osteoclasts in the area of 300×700 μm^2 in this region were counted (FIG. 1(C)). Osteoclasts were counted based on the fact that they were large multinuclear cells having been stained with eosin and located adjacent to the bone surface. The statistic differences between the control group and the test group was evaluated in accordance with Wilcoxon's rank-sum calibration method. […]

osteoclasts = test: Osteoclast count in the pressured side of the M1 interradicular septa during teeth separation; conditions: for osteoclast count in the pressured side compared with control group: 10 μg/100 g body weight/day infusion, FIG. 5
Description: as §3

male Wister rats [5] = test: Histological change in pressured periodontia during teeth separation
Description: 18 rats were divided into 4 groups including a control group having 6 animals and 3 PTH-infusion groups each having 4 animals. PTH was dissolved in a citric acid-buffered saline containing 0.05% of Tween 80 and introduced into osmotic pumps. Then these pumps were implanted in the subcutus posterior region of the neck of the rats under ether anetheia. PTH was continuously infused into the rats in doses of 1, 3 and 10 μg/100 g body weight/day and the rats were fed with a standard pelletized feed (manufactured by Oriental Yeast Co., Ltd.). To the rats of the control group, vehicles were exclusively administered. 48 hours after implanting, a piece of an elastic band (0.8 mm in thickness) was inserted between the right upper first molar and second molar (between M1 and M2) of each rat under ether anetheia in accordance with the method of Wong-Rothblatt (1954) as shown in FIG. 1(A). On day 3 of the teeth separation, the rat was sacrificed by ether-inhalation. After cutting out the upper jaw, the distance between the adjacent faces of M1 and M2 was measured with the combined use of contact gauges (manufactured by Sun Dental, Osaka) of 50, 100 and 150 μm in thickness (FIGS. 1(B) and (C)). In the case of the control group, a contact gauge of 50 μm could be inserted between M1 and M2. Thus, the interdental distance was calculated by subtracting 50 μm from the measured distance of each animal. […] The upper jaw was fixed in 4% paraformaldehyde, decalcificated in 4% formic acid and then implanted in paraffin. Subsequently, these preparations were cut into continuous mesiodistal sections of 8 μm in thickness and stained with hematoxylin and eosin. Histological examinations were all performed in the pressured side of the M1 interradicular septa and osteoclasts in the area of 300×700 μm^2 in this region were counted (FIG. 1(C)). Osteoclasts were counted based on the fact that they were large multinuclear cells having been stained with eosin and located adjacent to the bone surface. The statistic differences between the control group and the test group was evaluated in accordance with Wilcoxon's rank-sum calibration method. Each of the data was expressed in average±SEM. A P value less than 0.05 was regarded as being statistically significant.
32 rats were divided into 2 test groups each having 16 animals. […] To the rats of the control group, vehicles were exclusively administered. 2 days after implanting osmotic pumps, an elastic band was inserted between the right M1 and M2 of each rat. On days 0, 1, 3 and 5 of the teeth separation (i.e., on days 2, 3, 5 and 7 of the PTH infusion), the rats were sacrificed followed by the same procedures as those performed in Experiment 1.

[6] = 1 μg/100 g body weight/day and 3 μg/100 g body weight/day groups

human PTH (1-34) [hPTH (1-34)]
tooth shift-promoting effect (male Wister rats [1]; continuous PTH infusion group, after day 9, FIG. 10): observed more remarkably | mesial shift of M1 compared with control group (male Wister rats [1]; continuous PTH infusion group, FIG. 10): slightly significantly promoted | mesial shift of M1 relative to control group (male Wister rats [1]; continuous infusion of 4 μg/100 g body weight/day, day 12): twice | mesial shift of M1 (male Wister rats [1]; continuous infusion of 4 μg/100 g body weight/day, day 12 of tooth movement): 1.01±0.09 mm | shift of M1, dose dependence (male Wister rats [1]; continuous infusion of 0.4 or 4 μg/100 g body weight/day, day 12, FIG. 7): promoted depending on the dose | mesial shift of M1 compared with control group (male Wister rats [1]; intermittent PTH injection group (4 μg/100 g body weight/day s.c. once a day), FIG. 10): slightly significantly promoted | M1 shifting distance compared with control group (male Wister rats [1]; intermittent PTH injection group, after day 6, FIG. 10): no significant difference | tooth movement-promoting effect (male Wister rats [2]; after day 9): more remarkable | mesial M1 shift (male Wister rats [2]; since day 3): tendency that the mesial M1 shift was promoted | bone resorption in the mesial alveolar bone of M1 compared with control group (male Wister rats [3]): energetic bone resorption | bone resorption in the distal side of the alveolar septum (male Wister rats [3]; FIG. 16-B): remarkable bone resorption was observed over a wide range | necrotic tissue in the periodontal membrane, compared with control group (male Wister rats [3]; FIG. 16-B): no such necrotic tissue

B1: human PTH (1-84) (protein, UniProt P01270 32-115, looked up)
Parathyroid hormone: SVSEIQLMHNLGKHLNSMERVEWLRKKLQDVHNFVALGAPLAPRDAGSQRPRKKEDNVLVESHEKSLGEADKADVNVLTKAKSQ
modifications: Parathyroid hormone
notes: recombinant human parathyroid hormone consisting of 84 amino acid residues
distance between M1 and M2 compared with control group (male Wister rats [4]; Experiment 1, 10 μg/100 g body weight/day continuous infusion, elastic band for 3 days, FIG. 2): significant increase | teeth separation distance compared with control group (male Wister rats [4]; Experiment 2, 10 μg/100 g body weight/day infusion, day 1, FIG. 3): no significant difference | teeth separation distance compared with control group (male Wister rats [4]; Experiment 2, 10 μg/100 g body weight/day infusion, day 3, FIG. 3): significant increase | teeth separation (male Wister rats [4]; Experiment 2, 10 μg/100 g body weight/day infusion, day 5, FIG. 3): almost reached the limit | dose of PTH infusion achieving the maximum effect on teeth separation (male Wister rats [4]; continuous infusion of 1, 3 and 10 μg/100 g body weight/day, day 3 of teeth separation, FIG. 2): 10 μg/100 g body weight/day | osteoclast count in the pressured side compared with control group (osteoclasts; day 5): no significant difference | osteoclast count in the pressured side compared with control group (osteoclasts; from day 1): significant increase | osteoclast count in the pressured side of the periodontia, test groups and control group compared (osteoclasts; 1, 3 and 10 μg/100 g body weight/day infusion (all 3 test groups), elastic band for 3 days, FIG. 4): significant increase | bone resorption compared with vehicle-treated rats (male Wister rats [5]; [6]): bone resorption seemingly arose over wider range | necrotic tissue in the pressured periodontia (male Wister rats [5]; [6]): necrotic tissue was also observed | necrotic tissue in the pressured periodontia (male Wister rats [5]; 10 μg/100 g body weight/day, day 1 of teeth separation): necrotic tissue was observed | necrotic tissue in the pressured periodontia (male Wister rats [5]; 10 μg/100 g body weight/day, day 3 of teeth separation): no necrosis
